{"source": "ChEMBL document CHEMBL6121005", "about": "(Eur J Med Chem, 2025)", "key": {"[1]": {"biological_target": "T1, Cholinesterase (Homo sapiens, UniProt P06276)", "T1 sequence (P06276 whole entry)": "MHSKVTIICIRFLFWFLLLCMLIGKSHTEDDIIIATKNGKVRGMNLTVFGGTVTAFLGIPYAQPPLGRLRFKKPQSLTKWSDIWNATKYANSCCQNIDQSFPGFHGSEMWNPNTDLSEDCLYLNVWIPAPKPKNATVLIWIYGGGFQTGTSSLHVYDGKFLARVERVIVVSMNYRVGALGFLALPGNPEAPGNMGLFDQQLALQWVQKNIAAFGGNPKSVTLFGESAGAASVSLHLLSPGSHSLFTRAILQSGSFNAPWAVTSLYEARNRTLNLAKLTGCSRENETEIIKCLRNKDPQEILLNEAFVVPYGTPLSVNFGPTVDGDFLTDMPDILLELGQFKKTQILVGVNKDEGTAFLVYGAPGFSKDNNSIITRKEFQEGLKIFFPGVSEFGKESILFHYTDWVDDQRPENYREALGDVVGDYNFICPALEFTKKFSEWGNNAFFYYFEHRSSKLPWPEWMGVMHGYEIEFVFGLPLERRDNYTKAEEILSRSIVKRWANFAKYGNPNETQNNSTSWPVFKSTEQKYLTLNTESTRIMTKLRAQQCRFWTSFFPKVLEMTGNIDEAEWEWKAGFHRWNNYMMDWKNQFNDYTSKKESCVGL", "experiment": "Inhibition of human serum BuChE using butyrylthiocholine iodide as substrate at 10 uM incubated for 10 mins followed by substrate addition by DTNB reagent based Ellman's method relative to control"}, "[2]": {"biological_target": "T1, Cholinesterase", "experiment": "Inhibition of human serum BuChE using butyrylthiocholine iodide as substrate incubated for 10 mins followed by substrate addition by DTNB reagent based Ellman's method"}, "[3]": {"biological_target": "Acetylcholinesterase (Homo sapiens, UniProt P22303)", "sequence (P22303 whole entry)": "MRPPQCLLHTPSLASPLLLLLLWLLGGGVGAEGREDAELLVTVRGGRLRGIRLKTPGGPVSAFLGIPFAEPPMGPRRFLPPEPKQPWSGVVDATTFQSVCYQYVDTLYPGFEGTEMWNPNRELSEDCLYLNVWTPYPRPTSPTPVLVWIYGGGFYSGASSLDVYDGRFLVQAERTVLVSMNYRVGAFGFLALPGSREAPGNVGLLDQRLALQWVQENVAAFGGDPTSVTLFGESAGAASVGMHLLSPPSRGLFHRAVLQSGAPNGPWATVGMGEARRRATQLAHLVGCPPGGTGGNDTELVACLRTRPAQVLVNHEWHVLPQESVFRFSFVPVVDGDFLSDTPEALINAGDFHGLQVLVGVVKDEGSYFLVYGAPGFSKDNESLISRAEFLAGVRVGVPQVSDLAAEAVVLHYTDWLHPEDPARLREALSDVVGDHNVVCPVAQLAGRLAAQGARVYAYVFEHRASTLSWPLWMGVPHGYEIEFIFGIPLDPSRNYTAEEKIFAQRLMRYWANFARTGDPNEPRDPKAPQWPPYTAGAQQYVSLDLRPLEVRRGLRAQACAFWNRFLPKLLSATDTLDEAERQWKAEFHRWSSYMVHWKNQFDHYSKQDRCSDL", "experiment": "Inhibition of human erythrocytes AChE measured after 10 mins by Ellman's method"}, "[4]": {"test_system": "PC-12", "experiment": "(§1) Neuroprotective activity against H2O2-induced rat PC12 cells assessed as protection against H2O2-induced apoptosis by measuring late apoptotic cells at 50 uM pretreated for 2 hrs followed by H2O2 addition and measured after 24 hrs by Annexin V-FITC/PI staining based flow cytometry analysis (reference value: 7.26 %)", "assay_type": "functional", "details": "time 26 hrs"}, "[5]": {"experiment": "Cytotoxicity against rat PC12 cells assessed as cell viability at 50 uM preincubated for 24 hrs and measured after 4 hrs by CCK-8 assay", "assay_type": "toxicity, cell-based, PC-12", "details": "time 28 hrs, read-out: Activity"}, "[6]": {"test_system": "PC-12", "experiment": "as §1, with “necrotic” for “late apoptotic”, “0.99” for “7.26”", "assay_type": "functional", "details": "time 26 hrs"}, "[7]": {"test_system": "PC-12", "experiment": "as §1, with “early” for “late”, “0.88” for “7.26”", "assay_type": "functional", "details": "time 26 hrs"}, "[8]": {"test_system": "PC-12", "experiment": "Cytoprotective against rat PC12 cells assessed as cell viability at 50 uM preincubated for 24 hrs and measured after 4 hrs by CCK-8 assay", "assay_type": "functional, cell-based"}, "[9]": {"test_system": "PC-12", "experiment": "as §1, with “viable” for “late apoptotic”, “90.8” for “7.26”", "assay_type": "functional", "details": "time 26 hrs"}, "[10]": {"experiment": "Inhibition of H2O2-induced ROS release in rat PC12 cells assessed as mean fluorescence intensity at 50 uM preincubated for 2 hrs followed by H2O2 addition and measured after 24 hrs by DCFH-DA based flow cytometry analysis (reference value: 23904)", "assay_type": "functional, PC-12", "details": "time 26 hrs"}, "[11]": {"test_system": "PC-12", "experiment": "Antioxidant activity against H2O2-induced toxicity in rat PC12 cells at 12.5 uM preincubated for 2 hrs and measured after 24 hrs by CCK-8 assay", "assay_type": "functional, cell-based", "details": "time 26.0 hrs"}}, "note": "Activity calls are given as the source filed them. No cut-off for these calls is given here.", "data": [{"smiles": "COc1ccc2c3c1O[C@H]1C[C@@H](OC(=O)NCc4ccc(C(F)(F)F)cc4)C=C[C@@]31CCN(C)C2", "values": [{"measurement": "inhibition", "setting": "[1]", "value": 14.9, "unit": "%"}]}, {"smiles": "COc1cccc(Cc2ccc(CO[C@H]3C=C[C@@]45CCN(C)Cc6ccc(OC)c(c64)O[C@H]5C3)nc2)c1", "values": [{"measurement": "IC50", "setting": "[2]", "value": 1070, "unit": "nM"}, {"measurement": "inhibition", "setting": "[1]", "value": 88.2, "unit": "%"}]}, {"smiles": "COc1ccc2c3c1O[C@H]1C[C@@H](OC(=O)NCc4ccccc4C)C=C[C@@]31CCN(C)C2", "values": [{"measurement": "inhibition", "setting": "[1]", "value": 9.54, "unit": "%"}]}, {"smiles": "COc1ccc2c3c1O[C@H]1C[C@@H](OC(=O)NCc4ccc(C)cc4)C=C[C@@]31CCN(C)C2", "values": [{"measurement": "inhibition", "setting": "[1]", "value": 4.99, "unit": "%"}]}, {"smiles": "COc1cc(CN2CCC(NC(=O)O[C@H]3C=C[C@@]45CCN(C)Cc6ccc(OC)c(c64)O[C@H]5C3)CC2)cc(OC)c1", "values": [{"measurement": "inhibition", "setting": "[1]", "value": 12.9, "unit": "%"}]}, {"smiles": "COc1ccc2c3c1O[C@H]1C[C@@H](OC(=O)NCc4ccc5ccccc5c4)C=C[C@@]31CCN(C)C2", "values": [{"measurement": "inhibition", "setting": "[1]", "value": 6.44, "unit": "%"}]}, {"smiles": "COc1ccc2c3c1O[C@H]1C[C@@H](OC(=O)NC4CCN(Cc5ccc(F)cc5)CC4)C=C[C@@]31CCN(C)C2", "values": [{"measurement": "IC50", "setting": "[3]", "value": 399, "unit": "nM"}, {"measurement": "inhibition", "setting": "[1]", "value": 21, "unit": "%"}]}, {"smiles": "COc1ccc2c3c1O[C@H]1C[C@@H](OC(=O)NCc4ccc(C#N)cc4)C=C[C@@]31CCN(C)C2", "values": [{"measurement": "inhibition", "setting": "[1]", "value": 2.57, "unit": "%"}]}, {"smiles": "COc1ccc(CNC(=O)O[C@H]2C=C[C@@]34CCN(C)Cc5ccc(OC)c(c53)O[C@H]4C2)cc1", "values": [{"measurement": "inhibition", "setting": "[1]", "value": 2.97, "unit": "%"}]}, {"smiles": "COc1ccc2c3c1O[C@H]1C[C@@H](OCc4ccc(Cc5cccc(Cl)c5)cn4)C=C[C@@]31CCN(C)C2", "values": [{"measurement": "IC50", "setting": "[3]", "value": 3390, "unit": "nM"}, {"measurement": "Activity", "setting": "[4]", "value": 15, "unit": "%"}, {"measurement": "viability at 4 h, 50 µM", "setting": "[5]", "value": "> 90", "unit": "%"}, {"measurement": "Activity", "setting": "[6]", "value": 1.45, "unit": "%"}, {"measurement": "IC50", "setting": "[2]", "value": 913, "unit": "nM"}, {"measurement": "Activity", "setting": "[7]", "value": 10.9, "unit": "%"}, {"measurement": "Activity", "setting": "[8]", "value": "Active"}, {"measurement": "Activity", "setting": "[9]", "value": 72.4, "unit": "%"}, {"measurement": "Flu intensity", "setting": "[10]", "value": 88808}, {"measurement": "inhibition", "setting": "[1]", "value": 90.5, "unit": "%"}]}, {"smiles": "COc1ccc2c3c1O[C@H]1C[C@@H](OCc4ccc(Cc5ccc(C)cc5)cn4)C=C[C@@]31CCN(C)C2", "values": [{"measurement": "IC50", "setting": "[2]", "value": 1350, "unit": "nM"}, {"measurement": "inhibition", "setting": "[1]", "value": 87.4, "unit": "%"}]}, {"smiles": "COc1ccc2c3c1O[C@H]1C[C@@H](OC(=O)NCc4ccc(F)cc4F)C=C[C@@]31CCN(C)C2", "values": [{"measurement": "inhibition", "setting": "[1]", "value": 13.5, "unit": "%"}]}, {"smiles": "COc1ccc2c3c1O[C@H]1C[C@@H](OC(=O)NC4CCN(Cc5ccc([N+](=O)[O-])cc5)CC4)C=C[C@@]31CCN(C)C2", "values": [{"measurement": "inhibition", "setting": "[1]", "value": 24.6, "unit": "%"}]}, {"smiles": "COc1ccc2c3c1O[C@H]1C[C@@H](OC(=O)NC4CCN(Cc5ccc(OC(F)(F)F)cc5)CC4)C=C[C@@]31CCN(C)C2", "values": [{"measurement": "IC50", "setting": "[3]", "value": 451, "unit": "nM"}, {"measurement": "inhibition", "setting": "[1]", "value": 26, "unit": "%"}]}, {"smiles": "COc1ccc2c3c1O[C@H]1C[C@@H](OC(=O)NCc4ccc(F)cc4)C=C[C@@]31CCN(C)C2", "values": [{"measurement": "inhibition", "setting": "[1]", "value": 12.7, "unit": "%"}]}, {"smiles": "COc1ccc2c3c1O[C@H]1C[C@@H](OC(=O)NCc4ccccc4)C=C[C@@]31CCN(C)C2", "values": [{"measurement": "inhibition", "setting": "[1]", "value": 10.4, "unit": "%"}]}, {"smiles": "COc1ccc2c3c1O[C@H]1C[C@@H](OC(=O)NC4CCN(Cc5cccc(F)c5)CC4)C=C[C@@]31CCN(C)C2", "values": [{"measurement": "IC50", "setting": "[3]", "value": 419, "unit": "nM"}, {"measurement": "Activity", "setting": "[4]", "value": 10.3, "unit": "%"}, {"measurement": "viability at 4 h, 50 µM", "setting": "[5]", "value": "> 90", "unit": "%"}, {"measurement": "Activity", "setting": "[6]", "value": 1.27, "unit": "%"}, {"measurement": "Activity", "setting": "[7]", "value": 5.71, "unit": "%"}, {"measurement": "Activity", "setting": "[8]", "value": "Active"}, {"measurement": "Activity", "setting": "[9]", "value": 82.7, "unit": "%"}, {"measurement": "Flu intensity", "setting": "[10]", "value": 52051}, {"measurement": "inhibition", "setting": "[1]", "value": 18.6, "unit": "%"}]}, {"smiles": "COc1ccccc1Cc1ccc(CO[C@H]2C=C[C@@]34CCN(C)Cc5ccc(OC)c(c53)O[C@H]4C2)nc1", "values": [{"measurement": "IC50", "setting": "[3]", "value": 3200, "unit": "nM"}, {"measurement": "IC50", "setting": "[2]", "value": 2660, "unit": "nM"}, {"measurement": "inhibition", "setting": "[1]", "value": 84.4, "unit": "%"}]}, {"smiles": "COc1ccc2c3c1O[C@H]1C[C@@H](OC(=O)NC4CCN(Cc5ccccc5)CC4)C=C[C@@]31CCN(C)C2", "values": [{"measurement": "IC50", "setting": "[3]", "value": 370, "unit": "nM"}, {"measurement": "Activity", "setting": "[11]", "value": "Dose-dependent-effect"}, {"measurement": "Activity", "setting": "[4]", "value": 10.7, "unit": "%"}, {"measurement": "viability at 4 h, 50 µM", "setting": "[5]", "value": "> 90", "unit": "%"}, {"measurement": "Activity", "setting": "[6]", "value": 1.35, "unit": "%"}, {"measurement": "Activity", "setting": "[7]", "value": 8.66, "unit": "%"}, {"measurement": "Activity", "setting": "[8]", "value": "Active"}, {"measurement": "Activity", "setting": "[9]", "value": 79.3, "unit": "%"}, {"measurement": "Flu intensity", "setting": "[10]", "value": 76256}, {"measurement": "inhibition", "setting": "[1]", "value": 29.2, "unit": "%"}]}]}
